Like-named read-outs stand apart in the source and are kept apart here. Marks after values point to notes of the source that are not given here. Where a SMILES comes first, the peptide text is derived from it. Bridges are numbered along the chain shown (N, C = ends). [ ]: non-standard residue; d: D form. The star is where a group is joined. X1 = CC[C@H](C)CCCCC(=O)*; Dab = NCC[C@H](N)C(=O)O
Key:
[1] = Colistin concentration in luminal intestinal (jejunum and ileum) content, UHPLC-MS/MS; assay type: in vivo, Ross 308 broiler chickens; conditions: Ross 308 broiler; for tissue level at time at 54 h: po, jejunum and ileum content, 4 birds per timepoint, read-out: Geometric mean colistin concentration in luminal intestinal content
Procedure: Pharmacokinetic data from in vivo clinical and supra-clinical doses via drinking water and oral gavage were collected as follows. Birds were provided a 14-h photoperiod aligned with onset of dosing (0 h) at 07:00. Birds were housed together upon arrival and separated at 13-days into the following dosing groups 75,000 IU/kg oral gavage (n = 17), 150,000 IU/kg oral gavage (n = 17), 75,000 IU/kg/day drinking water (n = 38), 100,000 IU/kg/day drinking water (n = 38), and 150,000 IU/kg/day drinking water (n = 38), the remaining birds constituted an untreated control group (n = 27) housed in another room. Colistin was administered as a single oral gavage via manual syringe directly into the crop, with the volume calculated based on bird weight immediately prior to dosing. For colistin administration via drinking water, dose was calculated based on average bird weight and water consumption measured the preceding day. It was refreshed every 24 h over the 3-day dosing. The “real” dose received every 24 h was back calculated based on measured water consumption for each dosing period.
For administration via drinking water, 4 birds were sampled at each of the following timepoints pre-dose (0 h), during-dose (12, 36 and 54 h) and post-dose (72, 75, 76, 78, 84 and 96 h). Following oral gavage, 2 birds were sampled at each of the following timepoints 0 h (pre-dose), 1 h, 3 h, 6 h, 12 h, and 24 h (post-dose). Birds were sacrificed through cervical dislocation. The whole small intestine was excised from the duodenum to the large intestine, including the caeca, using individually wrapped and sterilised sets of dissection apparatus were used to avoid cross-contamination between birds. The jejunum and ileum were resected (between proximal ligature after duodenum, and distal ligature before the large intestine) and luminal intestinal content (LIC) was collected as an homogenous sample extracted from the small intestine via peristaltic massage in a proximal-to-distal direction as previously described, with the jejunum/ileum representing the principle compartment for potentially pathogenic E. coli (as compared to the large intestine). All samples were stored at − 80 °C prior to further analysis for no-more than 3 months. Following a previously validated method, colistin was extracted from the matrix using solid-phase extraction with a methanol:water (1:2; v/v) solution. Polymyxin B1 was used as an internal standard. Colistin A and colistin B, (main components of colistin), were separated, detected and measured using ultra-high-performance liquid chromatography coupled with tandem mass spectrometry (UHPLC-MS/MS). Total colistin was calculated as the ratio of the sum of peak areas of colistin A and B over the polymyxin B1 peak area.

[2] = 1-compartment population intestinal PK model of colistin; assay type: in vivo, broiler chickens; conditions: for Amount of colistin base transit through the small intestine / Amount of colistin sulphate transit through the small intestine: Eq. (1)
Procedure: Colistin (converted in mg/kg BW) was deposited in a dosing compartment (crop), either as a single bolus input representing an oral-gavage administration or as a daily zero-order input lasting 24 h representing a continuous dose via drinking water. The colistin content pooled jejunum and ileum content (expressed as mg colistin/kg intestinal content) was assumed to be well mixed and was fitted with a one-compartment model. The model was parametrised with 3 parameters: “clearance” that is here an intestinal flow rate (expressed in kg intestinal content/kg BW h^−1), “volume of distribution”, expressed in kg intestinal content/kg BW) and absorption rate constant for extravascular administration (Ka expressed in h^−1).
Between subject variability (BSV) was applied to the clearance (Cl) described using an exponential model, as in the following general equation: Pi=tvP∗exp(ηPi) where tvP is the typical value of the parameter within the population and the random parameter ηPi (eta) represents the deviation from the typical value for the ith individual. Etas are assumed normally distributed with a mean of 0 and a variance of ω^2.
For model evaluation, a significant decrease (> 6.635 corresponding to p < 0.01 for one degree of freedom) in the Bayesian information criterion (BIC) as well as observation of observed vs. population, individual predicted concentrations plots, and visual predictive checks (VPC) were utilized. All concentrations lower than the LOQ of the bioanalytical method (1.1 mg/kg) were considered as censored and managed with the M3 approach and using the Laplace engine by Phoenix™ v8.3.0.5005 (Certara, St. Louis, Missouri). Residual variability was described with a multiplicative error model, providing optimal fit compared to additive or additive/multiplicative models. Residual variability was low due to the single random effect on the clearance considering only a single-point for each bird (due to the nature of the destructive sampling) and the near normal distribution of the Etas. The final population model was evaluated using a Visual Predictive Check (VPC; n = 300) that compares observed with predicted quantiles (10th, 50th and 90th percentiles).

[3] = Colistin activity loss after centrifugation of medium (colispot microbiological assay); assay type: in vitro ADME; conditions: colispot method
[4] = tested on: E. coli; conditions: ref EUCAST; cited from earlier work
Procedure: Colistin is used in chickens for the treatment and metaphylaxis (following confirmation of disease within the flock) of susceptible (ECOFF = 2 mg/L) gastro-intestinal non-invasive E. coli infections. The dose recommended for administration via drinking water is 75,000 IU of colistin (as sulphate) per kg body weight per day for 3–5 consecutive days in Europe. As colistin is not absorbed from the gastrointestinal tract, its effect is exerted locally within the intestinal lumen and the wall of the intestine. As such, there is an opportunity to develop a PK model to predict the gut concentration t ...

[5] = tested on: E. coli 120h_B3_5; mcr-1; conditions: cited from earlier work
Source text: (§1) Supplement 41598_2023_39727_MOESM1_ESM.docx, table 2: Supplementary Table 2: Typical value (tv) and median parameter estimates and 95% confidence intervals of the semi-mechanistic model. | column: Typical value (tv) estimate; Median (Bootstrap) estimate

[6] = tested on: E. coli N100; mcr-negative; conditions: cited from earlier work
Source text: as §1

[7] = tested on: mcr-negative and mcr-positive E. coli isolates; conditions: cited from earlier work
Source text: as §1

[8] = ref Bergen et al.[46], cited from earlier work
Procedure: For the bacteriological response, the cumulative area under the curve of the total bacterial count over 24 h (AUCbact24h) was used. Data were then log10 transformed for regression. As LOQ was set at 100 CFU/mL, it was considered that re-growth would not occur if the total bacterial population decreased to this value. PK/PD indices are conventionally determined using protein unbound (free; f) concentration. Bergen et al.[46] indicated practical equivalence of total and unbound colistin in CAMHB (unbound fractions of 0.96 and 0.95 at 10 and 30 mg/L respectively). Furthermore, as colistin binding ...

[9] = 75,000 IU/kg BW/day for 3-days; cited from earlier work
Source text: (§2) In this situation treatment is used to lower the number of resident E. coli in the gastrointestinal tract and control gut overgrowth, in a similar fashion to selective decontamination[37],[38]. As the outcome is not to achieve complete eradication (gut sterilisation), a lower effect than predicted by the PK/PD index critical value may be enough to reduce the bacterial burden within the gastrointestinal tract.

[10] = tested on: E. coli population; conditions: 75,000 IU/kg BW/day for 3-days; cited from earlier work
Source text: as §2

[11] = targeted dose 100,000 IU/kg BW/day
[12] = targeted dose 150,000 IU/kg BW/day
[13] = typical value, 1-compartment intestinal PK model

## CC[C@H](C)CCCCC(=O)N[C@@H](CCN)C(=O)N[C@H](C(=O)N[C@@H](CCN)C(=O)N[C@H]1CCNC(=O)[C@H]([C@@H](C)O)NC(=O)[C@H](CCN)NC(=O)[C@H](CCN)NC(=O)[C@H](CC(C)C)NC(=O)[C@@H](CC(C)C)NC(=O)[C@H](CCN)NC1=O)[C@@H](C)O [colistin, colistin sulphate] (X1-[Dab]T[Dab][Dab][Dab][dL]L[Dab][Dab]T; lactam 4-C)
[1]; 75000 IU/kg, oral gavage 75,000 IU/kg, after 1 h, 2 birds per timepoint
  tissue level at time at 1 h: 21200 ng/g
[1]; 150000 IU/kg, oral gavage 150,000 IU/kg, after 3 h, 2 birds per timepoint
  tissue level at time at 3 h: 45600 ng/g
[1]; 75000 IU/kg/day, 75,000 IU/kg via drinking water
  tissue level at time at 54 h: 4890 ng/g
[1]; 100000 IU/kg/day, 100,000 IU/kg via drinking water
  tissue level at time at 54 h: 6660 ng/g
[1]; 150000 IU/kg/day, 150,000 IU/kg via drinking water
  tissue level at time at 54 h: 8600 ng/g
[2]; secondary parameter
  Overall MTT in digestive tract (mean transit time crop to jejunum): 4.5 h
  ka HL (entry rate half-life): 3.14 h
[2]; targeted dose 75,000 IU/kg BW/day
  Amount of colistin base transit through the small intestine: 70,534 IU/kg BW/day
[2]; [11]
  Amount of colistin base transit through the small intestine: 91,627 IU/kg BW/day
  Amount of colistin sulphate transit through the small intestine: 3.05 mg/kg BW/day
[2]; [12]
  Amount of colistin base transit through the small intestine: 139,935 IU/kg BW/day
  Amount of colistin sulphate transit through the small intestine: 4.66 mg/kg BW/day
[2]; [13]
  Cl (intestinal clearance), estimate (between subject variability %): 29.1 (40.5%) g intestinal content/kg BW/h
  V (intestinal volume of distribution): 5.14 g intestinal content/kg BW
  ka (entry rate constant from crop to jejunum): 0.221 h⁻¹
[3]; from CAMHB, E. coli ATCC 25922 bacterial lawn (microbiological assay, not LCMS)
  Colistin activity loss following centrifugation: 2%
[3]; from IGM (intestinal growth medium), binding to particulate matter, E. coli ATCC 25922 bacterial lawn
  Colistin activity loss following centrifugation: 27%
[4]
  ECOFF: 2 mg/L
[5]; for mcr-positive isolates, calculated from covariate parameter
  F2 (potentiation factor for Kdrug on S1), typical value (tv) estimate: 3.76* scalar
[5]; mcr-positive isolates, Emax (S2) x F2
  Emax (S1), typical value (tv) estimate: 10.13** h^-1
[5]; sub-population S1
  EC50_S1, typical value (tv) estimate: 2.760 µg/mL
[5]; sub-population S2
  EC50_S2, typical value (tv) estimate: 2.174 µg/mL
[6]; for mcr-negative isolates
  F2 (potentiation factor for Kdrug on S1), typical value (tv) estimate: 12.66 scalar
[6]; negative mcr isolates, Emax (S2) x F2
  Emax (S1), typical value (tv) estimate: 34.12** h^-1
[6]; sub-population S1, reproduced PD parameters
  EC50_S1, typical value (tv) estimate: 0.083 µg/mL
[6]; sub-population S2
  EC50_S2, typical value (tv) estimate: 0.115 µg/mL
[7]; both mcr-negative and mcr-positive isolates, maximal increase in kill effect
  Emax (S2), typical value (tv) estimate: 2.69 h⁻¹
[7]; sub-population S1
  gamma_S1 (Hill coefficient), typical value (tv) estimate: 4.09 scalar
[7]; sub-population S2
  gamma_S2 (Hill coefficient), median (bootstrap) estimate: 3.80 scalar
  gamma_S2 (Hill coefficient), typical value (tv) estimate: 3.22 scalar
[8]; in CAMHB at 10 mg/L
  Unbound fraction of colistin: 0.96
[8]; in CAMHB at 30 mg/L
  Unbound fraction of colistin: 0.95
[9]
  Maximum intestinal concentrations: greater than 5 mg/kg
[10]
  Reduction in the E. coli population: ~1000 fold
